Values of other authors as cited in patent US20100221356A1, “PHARMACEUTICAL COMPOSITION FOR ONCE A DAY ADMINISTRATION OF TROSPIUM CHLORIDE” (SUPERNUS PHARMACEUTICALS, INC., priority 2003, published 2010).

Key:
[1] = water
[2] = 40 mg immediate release dose once daily compared to 20 mg given twice daily

In the case of `O=C(O[C@H]1C[C@H]2CC[C@@H](C1)[N+]21CCCC1)C(O)(c1ccccc1)c1ccccc1` [Trospium chloride], the oral bioavailability (oral) is listed as “approximately 10%”, the “oral bioavailability with the intake of high-fat food” value (oral, high-fat food) is listed as “significantly reduced” and the “time to maximum blood level” value (orally administered) is listed as 5 to 6 h. For the same compound, the saturation solubility [1] was 500 mg/mL and the “overall incidence of adverse events” value [2] was “higher overall incidence of adverse events”.
